Data as given in PubChem BioAssay AID328 (DTP/NCI, 2004).
Values joined by “and” are separate entries in the source; they are usually repeats but may differ in a detail not shown here. Identical values can stand only once. Inconclusive results and toxic doses are left out.

Test system: BDF1 mice, P388 leukemia ip, median survival T/C
Test: NCI In Vivo Anticancer Drug Screen. Data for tumor model P388 Leukemia (intraperitoneal) in B6D2F1 (BDF1) mice
Settings: endpoint: median survival time, higher = longer survival
How it was run: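 Transplantable tumour in mice; compound vs vehicle dosing; survival scored; ratio of treated to control reported.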

With `COc1cccc2c1C(=O)c1c(O)c3c(c(O)c1C2=O)C[C@@](O)(C(C)=O)C[C@@H]3OC1CC(N)C(O)C(C)O1` (stereo partly specified) the T/C (dose: 0.03 mg/kg/injection, schedule: Q01DX010 (ip), vehicle: saline) was 108 % of control, the T/C (dose: 0.06 mg/kg/injection, schedule: Q## X020 (ip), vehicle: saline) was 108 % of control and the T/C (dose: 0.13 mg/kg/injection, schedule: Q01DX010 (ip), vehicle: saline) was 150 % of control. For the same compound, the T/C (dose: 0.13 mg/kg/injection, schedule: Q03HX024 (ip), vehicle: saline) was 200 % of control, the T/C (dose: 0.13 mg/kg/injection, schedule: Q## X020 (ip), vehicle: saline) was 100 % of control and the T/C (dose: 0.21 mg/kg/injection, schedule: Q03HX024 (ip), vehicle: saline) was 210 % of control. The T/C (dose: 0.21 mg/kg/injection, schedule: Q## X010 (ip), vehicle: saline) was 190 % of control, the T/C (dose: 0.21 mg/kg/injection, schedule: Q## X020 (ip), vehicle: saline) was 195 % of control and the T/C (dose: 0.25 mg/kg/injection, schedule: Q01DX009 (ip), vehicle: saline) was 208 % of control. The T/C (dose: 0.25 mg/kg/injection, schedule: Q01DX010 (ip), vehicle: clinical formulation) was 159 % of control, the T/C (dose: 0.36 mg/kg/injection, schedule: Q03HX024 (ip), vehicle: saline) was 205 % of control and the T/C (dose: 0.36 mg/kg/injection, schedule: Q04DX003 (ip), vehicle: saline) was 180 % of control. For the same compound, the T/C (dose: 0.36 mg/kg/injection, schedule: Q## X020 (ip), vehicle: saline) was 200 % of control, the T/C (dose: 0.38 mg/kg/injection, schedule: Q01DX010 (ip), vehicle: saline) was 189 % of control and the T/C (dose: 0.5 mg/kg/injection, schedule: Q01DX009 (ip), vehicle: saline) was 170 % of control. The T/C (dose: 0.5 mg/kg/injection, schedule: Q01DX010 (ip), vehicle: clinical formulation) was 168 % of control, the T/C (dose: 0.5 mg/kg/injection, schedule: Q01DX010 (ip), vehicle: water) was 175 % of control and the T/C (dose: 0.5 mg/kg/injection, schedule: Q03HX008 (ip), vehicle: water) was 181 % of control. For the same compound, the T/C (dose: 0.5 mg/kg/injection, schedule: Q06HX004 (ip), vehicle: water) was 190 % of control, the T/C (dose: 0.5 mg/kg/injection, schedule: Q## X020 (ip), vehicle: saline) was 100 % of control and 207 % of control and the T/C (dose: 0.6 mg/kg/injection, schedule: Q03HX024 (ip), vehicle: saline) was 235 % of control. For the same compound, the T/C (dose: 0.6 mg/kg/injection, schedule: Q04DX003 (ip), vehicle: saline) was 215 % of control, the T/C (dose: 0.6 mg/kg/injection, schedule: Q## X010 (ip), vehicle: saline) was 210 % of control and the T/C (dose: 0.6 mg/kg/injection, schedule: Q## X020 (ip), vehicle: saline) was 190 % of control. For the same compound, the T/C (dose: 0.63 mg/kg/injection, schedule: Q01DX010 (ip), vehicle: saline) was 195 % of control and 200 % of control, the T/C (dose: 0.75 mg/kg/injection, schedule: Q01DX010 (ip), vehicle: saline) was 205 % of control and the T/C (dose: 0.78 mg/kg/injection, schedule: Q04DX002 (ip), vehicle: saline) was 172 % of control. For the same compound, the T/C (dose: 1.0 mg/kg/injection, schedule: Q01DX009 (ip), vehicle: saline) was 108 % of control, the T/C (dose: 1.0 mg/kg/injection, schedule: Q01DX010 (ip), vehicle: clinical formulation) was 163 % of control and the T/C (dose: 1.0 mg/kg/injection, schedule: Q01DX010 (ip), vehicle: water) was 195 % of control. The T/C (dose: 1.0 mg/kg/injection, schedule: Q03HX008 (ip), vehicle: water) was 204 % of control, the T/C (dose: 1.0 mg/kg/injection, schedule: Q03HX024 (ip), vehicle: saline) was 115 % of control and the T/C (dose: 1.0 mg/kg/injection, schedule: Q04DX003 (ip), vehicle: water) was 115 % of control. The T/C (dose: 1.0 mg/kg/injection, schedule: Q06HX004 (ip), vehicle: water) was 190 % of control, the T/C (dose: 1.0 mg/kg/injection, schedule: Q## X010 (ip), vehicle: saline) was 200 % of control and the T/C (dose: 1.0 mg/kg/injection, schedule: Q## X020 (ip), vehicle: saline) was 287 % of control and 108 % of control and 209 % of control. The T/C (dose: 1.25 mg/kg/injection, schedule: Q01DX009 (ip), vehicle: water) was 176 % of control, the T/C (dose: 1.25 mg/kg/injection, schedule: Q01DX010 (ip), vehicle: saline) was 227 % of control and 215 % of control and the T/C (dose: 1.3 mg/kg/injection, schedule: Q01DX009 (ip), vehicle: clinical formulation) was 231 % of control. For the same compound, the T/C (dose: 1.5 mg/kg/injection, schedule: Q01DX010 (ip), vehicle: saline) was 210 % of control, the T/C (dose: 1.56 mg/kg/injection, schedule: Q01DX009 (ip), vehicle: water) was 157 % of control and 196 % of control and the T/C (dose: 1.56 mg/kg/injection, schedule: Q04DX002 (ip), vehicle: saline) was 209 % of control. For the same compound, the T/C (dose: 1.7 mg/kg/injection, schedule: Q04DX003 (ip), vehicle: saline) was 225 % of control, the T/C (dose: 1.7 mg/kg/injection, schedule: Q## X010 (ip), vehicle: saline) was 165 % of control and the T/C (dose: 1.7 mg/kg/injection, schedule: Q## X020 (ip), vehicle: saline) was 180 % of control. For the same compound, the T/C (dose: 1.8 mg/kg/injection, schedule: Q01DX009 (ip), vehicle: water) was 161 % of control, the T/C (dose: 2.0 mg/kg/injection, schedule: Q01DX009 (ip), vehicle: clinical formulation) was 257 % of control and the T/C (dose: 2.0 mg/kg/injection, schedule: Q01DX010 (ip), vehicle: clinical formulation) was 172 % of control. For the same compound, the T/C (dose: 2.0 mg/kg/injection, schedule: Q01DX010 (ip), vehicle: water) was 95 % of control, the T/C (dose: 2.0 mg/kg/injection, schedule: Q03HX008 (ip), vehicle: water) was 95 % of control and the T/C (dose: 2.0 mg/kg/injection, schedule: Q06HX004 (ip), vehicle: water) was 195 % of control. For the same compound, the T/C (dose: 2.5 mg/kg/injection, schedule: Q01DX001 (ip), vehicle: saline) was 109 % of control and 215 % of control, the T/C (dose: 2.5 mg/kg/injection, schedule: Q01DX009 (ip), vehicle: water) was 97 % of control and the T/C (dose: 2.9 mg/kg/injection, schedule: Q04DX003 (ip), vehicle: saline) was 200 % of control. The T/C (dose: 3.0 mg/kg/injection, schedule: Q01DX009 (ip), vehicle: clinical formulation) was 157 % of control, the T/C (dose: 3.0 mg/kg/injection, schedule: Q01DX009 (ip), vehicle: water) was 173 % of control and the T/C (dose: 3.0 mg/kg/injection, schedule: Q01DX010 (ip), vehicle: saline) was 189 % of control. The T/C (dose: 3.13 mg/kg/injection, schedule: Q01DX009 (ip), vehicle: water) was 90 % of control, the T/C (dose: 3.13 mg/kg/injection, schedule: Q04DX002 (ip), vehicle: saline) was 169 % of control and 181 % of control and the T/C (dose: 4.0 mg/kg/injection, schedule: Q01DX010 (ip), vehicle: clinical formulation) was 104 % of control. For the same compound, the T/C (dose: 4.0 mg/kg/injection, schedule: Q01DX010 (ip), vehicle: water) was 90 % of control, the T/C (dose: 4.5 mg/kg/injection, schedule: Q01DX009 (ip), vehicle: clinical formulation) was 100 % of control and the T/C (dose: 5.0 mg/kg/injection, schedule: Q01DX010 (ip), vehicle: saline) was 120 % of control. The T/C (dose: 6.25 mg/kg/injection, schedule: Q04DX002 (ip), vehicle: saline) was 100 % of control, the T/C (dose: 13.33 mg/kg/injection, schedule: Q04DX003 (ip), vehicle: water) was 100 % of control and 207 % of control and the T/C (dose: 16.0 mg/kg/injection, schedule: Q04DX009 (ip), vehicle: water) was 96 % of control. For the same compound, the T/C (dose: 78.0 micrograms/kg/injection, schedule: Q01DX010 (ip), vehicle: saline) was 165 % of control, the T/C (dose: 125.0 micrograms/kg/injection, schedule: Q01DX010 (ip), vehicle: clinical formulation) was 150 % of control and the T/C (dose: 156.0 micrograms/kg/injection, schedule: Q01DX010 (ip), vehicle: saline) was 185 % of control. For the same compound, the T/C (dose: 250.0 micrograms/kg/injection, schedule: Q01DX010 (ip), vehicle: clinical formulation) was 183 % of control, the T/C (dose: 313.0 micrograms/kg/injection, schedule: Q01DX010 (ip), vehicle: saline) was 185 % of control and the T/C (dose: 500.0 micrograms/kg/injection, schedule: Q01DX010 (ip), vehicle: clinical formulation) was 195 % of control. For the same compound, the T/C (dose: 625.0 micrograms/kg/injection, schedule: Q01DX010 (ip), vehicle: saline) was 200 % of control, the T/C (dose: 1300.0 micrograms/kg/injection, schedule: Q04DX003 (ip), vehicle: water) was 174 % of control and the T/C (dose: 2160.0 micrograms/kg/injection, schedule: Q04DX003 (ip), vehicle: water) was 162 % of control. The T/C (dose: 3600.0 micrograms/kg/injection, schedule: Q04DX003 (ip), vehicle: water) was 117 % of control.
